In publication PMC6832651, “Design, Synthesis and Investigation of the Potential Anti-Inflammatory Activity of 7-O-Amide Hesperetin Derivatives” (Molecules, 2019):
Read-outs that look alike come from different tables or passages of the source.

Tests used:
RAW264.7 cells = assay: MTT cell viability / cytotoxicity assay; format: cell-based, mouse; details: concentrations up to 100 μM, MTT (Figure 1)
Experimental: Compounds 4a–4l, 5a–5b, 6a–6f, 7a–7c were assessed for toxicity against RAW264.7 cell lines using the 3-(4,5-dimethylthiazol-2-yl)-2,5-diphenyltetrazolium bromide (MTT) assay. After 40 μM treatment, the cell viability of all of the hesperetin derivatives was more than 90%. It was thus shown that the anti-inflammatory activities of hesperetin derivatives were not due to their cytotoxicity. In subsequent anti-inflammation studies, the highest concentration of hesperetin derivatives was set below 40 µM.
Cytotoxicity and cell viability was evaluated by a MTT (Sigma, Shanghai, China) assay using a method similar to the one described above. Cells were inoculated at a density of 7.0 × 10^3 cells/well into 96-well plate and cultured at 37 °C for 12 h. […] After that, MTT dissolved in phosphate buffered saline (PBS) and was added to the culture medium to reach a final concentration of 0.5 mg/mL and incubated for another 4 h. The media was removed and 200 μL of DMSO was added and incubated for 30 min. Finally, the cell viability (%) was calculated based on the absorbance measured at the wavelength of 490 nm and measured using a microplate reader (Synergy HTX, Biotek, Winowski, VT, USA). The cell viability were calculated by GraphPad Prism 6 (GraphPad, San Diego, CA, USA).

[1] = tested on: LPS-induced NO production in RAW264.7 cells; assay: Inhibition of LPS-induced NO production (Griess reagent); format: cell-based, mouse; details: for LPS-induced NO release: LPS-stimulated, result in words; for IC50: Mus musculus, 1 h pretreatment, then LPS 24 h, mean ± SD (n = 3)
Experimental: NO is an important inflammatory mediator and is overproduced and secreted out of mouse macrophages in response to bacterial lipopolysaccharide. To evaluate the anti-inflammatory activity of hesperetin derivatives, the secretion level of NO was detected in the medium of RAW264.7 cells after LPS stimulated with Griess reagent. Before the cells were treated with LPS (1 μg/mL) for 24 h, pretreatment with the compounds for 1 hour. […] All hesperetin derivatives could decrease the release of NO induced by LPS. […] While extended the length of the amide side chain and the inhibitory activities increased (4d > 4c > 4a; 4e > 4b). […] On the other hand, the cavity was medium-sized, large enough to accommodate cyclopentyl and propyl groups, but not enough to accommodate cyclohexyl and butyl ones (4a < 4b < 4d > 4f; 4k > 4l).
Nitrite levels were determined using the Griess method for NO has a short half-life and is oxidized to stable nitrite. RAW 264.7 cells were plated at a density of 2 × 10^5 per well in a 24-well culture plate and incubated in a 37 °C humidified incubator (5% CO2). After overnight Cultured, discarded the supernatant, added pre-configured compounds of different concentrations to the 24-well plate, and added the same one-thousandth of the DMSO solvent as the control to the experimental group for 1 h. Then LPS was added to experimental and model groups at a concentration of […] for 24 h compared to vehicle control. Following treatment, media was collected and centrifuged at 2000 rpm for 5 min to remove cellular debris. The medium from treated cells was removed and placed into a 96-well plate (50 µL per well) and was measured in culture supernatant using Griess reagent at 540 nm. The IC50 values of compounds were calculated by SPSS23.

TNF-α = TNF-α level in medium of LPS-induced RAW264.7 cells (ELISA); format: cell-based, mouse; details: 10 μM compound (Figure 2A-C)
Excerpt: (§1) When inflammation occurs, LPS-activated macrophages produce a variety of inflammatory cytokines, including TNF-α, interleukins (ILs), and nitric oxide (NO), which show a host shielding effect and also accelerate the occurrence of the inflammatory response during inflammatory situations. To evaluate the anti-inflammatory activity of hesperetin derivatives, the levels of TNF-α, IL-6 and IL-1β in the medium of LPS-induced macrophage cells were detected by enzyme linked immunosorbent assay (ELISA). […] Later, we will select one of them as lead compound and modify the structure at the 3’-OH, 5-OH and 4-carbonyl positions. […] Compounds 4d (MW = 401) and 4k (MW = 427) have similar structures and should have the same mechanism. Therefore, compound 4d with lower molecular weight was selected to further explore the mechanism(s) of the anti-inflammatory effect.
(§2) RAW264.7 cells (2 × 10^5 cells/well) were cultured in 24-well plate and pretreated with 10 μM of compounds for 1 h. And then stimulated with LPS, […], for 24 h. The cell culture supernatant were collected and the levels of TNF-α, IL-6 and IL-1β were determined using the ELISA kit (Elabscience, Wuhan, China). The optical density (OD) was measured at 540 nm. The results were analyzed using Origin Pro 8 (OriginLab, Northampton, MA, USA).

IL-6 = IL-6 level in medium of LPS-induced RAW264.7 cells (ELISA); format: cell-based, mouse; details: 10 μM compound (Figure 2A-C)
Excerpt: as §1, §2

IL-1β = IL-1β level in medium of LPS-induced RAW264.7 cells (ELISA); format: cell-based, mouse; details: 10 μM compound (Figure 2A-C)
Excerpt: as §1, §2

iNOS = assay: Western blotting of iNOS expression in LPS-induced RAW264.7 cells; format: cell-based, mouse; details: LPS 24 h, compound 5, 10, 20 μM (Figure 3)
Experimental: (§3) In the process of inflammation, inducible nitric oxide synthase enzymes (iNOS) are induced to overexpression in inflammatory cells when exposed to pro-inflammatory cytokines, which further leads to excessive production of NO. The inhibition of NO production by compound 4d may be correlated with its suppressive effect on LPS-induced iNOS. Thus, the inhibitory effects of compound 4d on LPS-mediated expressions of iNOS were analyzed by western blotting. Nitric oxide synthase (iNOS) protein levels were analyzed after exposure to LPS for 24 h in the presence or absence of compound 4d (5, 10, 20 μM). […] Cyclooxygenase-2 (COX-2) is an important indicator of anti-inflammatory inhibitors, maintaining a low level in normal tissues. […] Bay 11-7082 (5 μM) used as a positive control.
(§4) After the treatment with LPS ([…]) in the presence different concentration gradient or absence of compounds, removed culture supernatants, and cells were collected and lysed with RIPA lysis buffer (Beyotime, Shanghai, China) and phosphatase inhibitors (Beibokit, Bestbio, Shanghai, China). After centrifugation (4 °C, 30 min, 12,000 rpm, Beckman Coulter, Inc., Fullerton, CA, USA), the total protein concentration was determined using BCA Protein Assay Kit (Beyotime, Shanghai, China). […]

COX-2 = assay: Western blotting of COX-2 expression in LPS-induced RAW264.7 cells; format: cell-based, mouse; details: compound 5, 10, 20 μM (Figure 3)
Experimental: as §3, §4

NF-κB signal pathway = assay: Western blotting of NF-κB signal pathway in LPS-induced RAW264.7 cells; format: cell-based, mouse
Excerpt: Stimulation with LPS leads to the activation of nuclear factor-kappa B (NF-κB), which is a well-known transcription factor that positively regulates inflammation. When NF-κB activation is stimulated by LPS, inhibitor of NF-κB (IκB) protein phosphorylated and degraded frees NF-κB p65 subunit from sequestration, allowing it to translocate to the nucleus, bind to target promoters, and turn on the transcriptions of inflammation genes including TNF-α and IL-6. Therefore, Western blotting was used to examine the effects of compound 4d on LPS induced transcriptional activity of NF-κB in RAW264.7 cells.
After the treatment with LPS ([…]) in the presence different concentration gradient or absence of compounds, removed culture supernatants, and cells were collected and lysed with RIPA lysis buffer (Beyotime, Shanghai, China) and phosphatase inhibitors (Beibokit, Bestbio, Shanghai, China). After centrifugation (4 °C, 30 min, 12,000 rpm, Beckman Coulter, Inc., Fullerton, CA, USA), the total protein concentration was determined using BCA Protein Assay Kit (Beyotime, Shanghai, China). Lysates containing […] of total proteins were fractionated on SDS polyacrylamide gel and transferred to a polyvinylidene difluoride membranes (PVDF) (Merck Millipore, Tullagreen Carrigtwohill, Ireland). Membranes were blocked with 5% skim milk or 3% BSA (Albumin Bovine V, Sigma) in TBST and incubated at 4 °C overnight with their respective primary antibody: β-actin (1:1000 dilution; Abcam, Cambridge, MA, USA), iNOS (1:1000 dilution; Abcam, Cambridge, MA, USA), COX-2 (1:1000 dilution; CST, Danvers, MA, USA ), NF-κB (1:1000 dilution; CST, Danvers, MA, USA). After washing three times with TBST, membranes were incubated with secondary antibody for 1 h in room temperature on the shaker. Protein bands were visualized by the ultra-sensitive enhanced chemiluminescent (ECL) substrate (ECL-plus, Thermo Scientific, Rockford, IL, USA), after washing three times with TBST [34].

[2] = tested on: LPS-induced NO production in RAW264.7 cells; assay: Inhibition of LPS-induced NO production (Griess reagent); format: cell-based; details: Mus musculus, 10 μM compound, 1 h pretreatment, then LPS (1 μg/mL) 24 h, mean ± SD (n = 3)
[3] = parameters: method as in PMID 17047689; details: cited from earlier work
[4] = parameters: method as in PMID 19629709; details: cited from earlier work

SMILES | cytotoxicity (RAW264.7 cells) | LPS-induced NO release [1] | IC50 [1] [µM] | inhibitory effect on TNF-α production (TNF-α) | inhibitory effect on IL-6 production (IL-6) | inhibitory effect on IL-1β production (IL-1β) | expression level of iNOS (iNOS) | expression level of COX-2 (COX-2) | phosphorylation of IκBα (NF-κB signal pathway; LPS-induced RAW264.7 cells (Figure 4)) | protein expressions of NF-κB and IκBα (NF-κB signal pathway; LPS-induced RAW264.7 cells, compared with the LPS induced group (Figure 4)) | LPS-induced NF-κB p65 nuclear translocation (NF-κB signal pathway; RAW264.7 cells, pretreatment 5, 10, 20 µM) | melting point [°C] | inhibition at 10 µM [2] [%] | elimination half-life (t1/2) [3] [h] | elimination half-life (t1/2) [4] [h]
CCCNC(=O)COc1cc(O)c2c(c1)O[C@H](c1ccc(OC)c(O)c1)CC2=O [Compound 4d, 7-O-(2-(Propylamino)-2-oxoethyl)hesperetin] | no significant cytotoxicity | significantly alleviated the increase of LPS-induced NO release | 19.3 ± 0.47 | greater inhibitory effects than indomethacin (Ind) and celecoxib (Cel) | greater inhibitory effects than indomethacin (Ind) and celecoxib (Cel) | greater inhibitory effects than indomethacin (Ind) and celecoxib (Cel) | significantly decreased the expression level of iNOS induced by LPS in a dose-dependent manner | capable of reducing the expression level of COX-2 in a concentration-dependent way | markedly decreased | down-regulated | concentration-dependently reversed | 135.5 to 137.7 | 38.2 ± 1.13 |  | 
COc1ccc([C@@H]2CC(=O)c3c(O)cc(OCC(=O)NC(C)C)cc3O2)cc1O [Compound 4e, 7-O-(2-(Isopropylamino)-2-oxoethyl)hesperetin] |  | significantly alleviated the increase of LPS-induced NO release | 26.1 ± 1.21 | greater inhibitory effects than indomethacin (Ind) and celecoxib (Cel) | greater inhibitory effects than indomethacin (Ind) and celecoxib (Cel) | greater inhibitory effects than indomethacin (Ind) and celecoxib (Cel) |  |  |  |  |  | 157.6 to 160.4 | 27.1 ± 5.88 |  | 
COc1ccc([C@@H]2CC(=O)c3c(O)cc(OCC(=O)NC4CCCC4)cc3O2)cc1O [Compound 4k, 7-O-(2-(Cyclopentylamino)-2-oxoethyl)hesperetin] |  | significantly alleviated the increase of LPS-induced NO release | 16.6 ± 0.85 | greater inhibitory effects than indomethacin (Ind) and celecoxib (Cel) | greater inhibitory effects than indomethacin (Ind) and celecoxib (Cel) | greater inhibitory effects than indomethacin (Ind) and celecoxib (Cel) |  |  |  |  |  | 187.5 to 190 | 40.9 ± 0.64 |  | 
COc1ccc([C@@H]2CC(=O)c3c(O)cc(O)cc3O2)cc1O [hesperetin] |  |  |  |  |  |  |  |  |  |  |  |  |  | 1.78 | 3.12
